Seven compounds from US11235001B2, “RUNX inhibitor” (KYOTO UNIVERSITY, priority 2016, dated 2022) can be followed below.

In test [1] the test system is BCL11A, TRIM24, p53, p21, BAX, PUMA and MDM2. Nature of the test: qRT-PCR of p53 suppressors and p53 target genes in MV4-11 cells. The format is cell-based, human. Particulars: 1 μM, 6 hours. The protocol: A total RNA was isolated with RNeasy mini kit (Qiagen) and reverse transcribed with Reverse script kit (TOYOBO) to generate cDNA. Real-time quantitative polymerase chain reaction (PCR) was carried out with 7500 Real-Time PCR System (Applied Biosystems) according to the manufacturer's instructions. Results were normalized to GAPDH levels. Relative expression levels were calculated using the 2-ΔΔCt method.
In general terms: Quantitative PCR measures a nucleic acid by following its amplification.

For test [2], the system named is BCL11A, TRIM24, p21, BAX, PUMA, MDM2, PARP, cleaved caspase-3. In words: Immunoblotting of p53 pathway and apoptosis proteins in MV4-11 cells. The format is cell-based, human. The conditions noted are these: 1 μM, 24 hours. The protocol:
Cells were washed twice with ice cold phosphate-buffered saline (PBS) and harvested in protein lysis buffer [50 mM Tris (pH 7.4), 100 mM NaCl, 0.1 mM EDTA, 1 mM phenylmethylsulfonyl fluoride, 1 mM β-glycerophosphate, 2.5 mM sodium pyrophosphate, 1 mM Na3VO4, lx protease inhibitor (Roche) and PhosSTOP (Roche)]. Whole cell extracts were separated by SDS-polyacrylamide gel electrophoresis (SDS-PAGE) and electrotransferred onto polyvinylidene difluoride membranes. Membranes were probed with the following antibodies: anti-Ctip1 antibody (Abcam, ab19487), anti-TRIM24 antibody (Bethyl Laboratories, Inc), anti-RUNX1 antibody (A-2), anti-GAPDH (FL-335), anti-p21 (C-19), anti-Bax (N-20) antibodies (Santa Cruz Biotechnology, Inc.), anti-RUNX2, anti-RUNX3, anti-p53 antibodies (Cell Signaling Technology), anti-CBFβ antibody (FL-182, Santa Cruz Biotechnology, Inc.), anti-cleaved caspase-3 antibody (5A1E, Cell Signaling Technology), anti-PARP antibody (46D11, Cell Signaling Technology). For secondary antibodies, anti-rabbit IgG, or anti-mosue IgG HRP-linked antibodies (Cell Signaling Technology) were used. Blots were detected using Chemi-Lumi One Super (nacalai tesque, Inc.) and ChemiDoc™ XRS+ Imager (Bio-Rad Laboratories, Inc.), as recommended by the manufacturers. Protein levels were quantified with Image Lab Software (Bio-Rad Laboratories, Inc.).
Briefly, MV4-11 cells were treated with 1 μM Chb-M′ or Chb-50 for 24 hours. The treated cells were dissolved in the protein lysis buffer. Whole cell extracts were resolved by SDS-polyacrylamide gel electrophoresis (SDS-PAGE) and transferred onto polyvinylidene difluoride membranes. The membranes were probed with each antibody. Blots were detected and quantified. As a control, the cells treated with DMSO were used.
In general terms: In western blotting, separated proteins are transferred to a membrane and probed.

The subject of test [3] is IL3, CSF2 and CSF2RB. In words: qRT-PCR of RUNX1 target genes in MV4-11 cells. Type of test: cell-based, human. Particulars: 5 μM, 6 hours.
Test [4] deals with SU-Ph2 cells. Nature of the test: Cell growth inhibition assay, SU-Ph2 cells. The format is cell-based, human. The conditions noted are these: SU-Ph2, 48 hours.
The subject of test [5] is AML cell lines expressing functional p53 (MV4-11, OCI-AML2, OCI-AML3 and MOLM-13). Nature of the test: Growth inhibition assay of AML cell lines expressing functional p53. The format is cell-based, human. Particulars: 48 hours; at between nanomolar to low micromolar levels. Here is the method:
Growth inhibition of some AML cell lines expressing functional p53 (MV4-11, OCI-AML2, OCI-AML3 and MOLM-13) by PI polyamide conjugates at different concentrations was tested. Briefly, the cells were placed at a density of 1×10^5 cells/mL. Different concentrations of a PI polyamide conjugate (Chb-M′ or Chb-50) were added to media, and the cells were incubated for 48 hours (n=3). The number of viable cells when the PI polyamide conjugate was not added was used as a control (DMSO control). Cell viability was assessed by counting the viable cells with Cell Count Reagent SF (Nacalai tesque, Inc.) and Infinite (registered trademark) 200 PRO multimode reader (TECAN) according to the manufacturer's instructions.

For test [6], the system named is SU/SR cells. Particulars: read-out: IC50 value; SU/SR (imatinib-resistant), 48 hours.
Test [7] relates to RUNX family (RUNX1, RUNX2 and RUNX3). Nature of the test: Gene expression microarray in MV4-11 cells vs RUNX family knockdown. The format is cell-based, human. Particulars: 1 μM, 6 hours, top 500 up- and down-regulated genes.
Test [8] has as its system SU/SR cells. In words: Xenograft ALL mouse model (SU/SR). Particulars: NOG mice with SU/SR. Type of test: in vivo.
Test [9] deals with NB4 (p53MT). Nature of the test: cells. The conditions noted are these: Homo sapiens.
Test [10] has as its system UF1 (p53Null). In words: cells. Particulars: Homo sapiens.
Test [11] concerns MV4-11 cells. Nature of the test: Xenograft AML mouse model (MV4-11). Type of test: in vivo. The conditions noted are these: NOG mice with MV4-11, day 14.
Test [12] deals with DU-145 cells. Nature of the test: cells. The conditions noted are these: Homo sapiens, DU-145, 48 h, read-out: IC50 (μM) in DU-145 cells.
The test system of test [13] is p53-mutated colon cancer cell line HT29. Particulars: HT29, 72 hours.
For test [14], the system named is LNCaP cells. In words: cells. Particulars: Homo sapiens, 48 h, read-out: IC50 (μM) in LNCaP cells.
In test [15] the test system is medulloblastoma cell line DAOY. Nature of the test: cells. The conditions noted are these: Homo sapiens, 48 h.
Test [16] concerns MV4-11NR. In words: cells. The conditions noted are these: Homo sapiens, 48 h, read-out: IC50 (μM) of PRIMA-1 single agent administration.
The subject of test [17] is KG1a. In words: cells. The conditions noted are these: Homo sapiens, KG-1a, 48 h, read-out: IC50 (μM) of PRIMA-1 single agent administration.
The subject of test [18] is Kasumi-1. In words: cells. Particulars: Homo sapiens, Kasumi 1, 48 h, read-out: IC50 (μM) of PRIMA-1 single agent administration.
For test [19], the system named is HL60. In words: cells. Particulars: Homo sapiens, HL-60, 48 h, read-out: IC50 (μM) of PRIMA-1 single agent administration.
The test system of test [20] is THP-1. Nature of the test: cells. The conditions noted are these: Homo sapiens, THP-1, 48 h, read-out: IC50 (μM) of PRIMA-1 single agent administration.
Test [21] concerns A549 cells. In words: Xenograft lung cancer mouse model (A549). The format is in vivo.

Turning to `CN(C)CCCNC(=O)c1nc(NC(=O)c2nc(NC(=O)c3cc(NC(=O)c4nc(NC(=O)CCCNC(=O)c5cc(NC(=O)c6nc(NC(=O)c7cc(NC(=O)c8cc(NC(=O)CCNC(=O)CCCc9ccc(N(CCCl)CCCl)cc9)cn8C)cn7C)cn6C)cn5C)cn4C)cn3C)cn2C)cn1C` [Chb-50], in [1], the “Gene expressions of p53 suppressors BCL11A and TRIM24” value is on record as “down-regulated”; the “mRNA expression level of p53” value is given as “unchanged”; the “mRNA expression levels of p21 and PUMA” value is “increased”. In addition, in test [2], the “Cleaved form of PARP and cleaved caspase-3 (apoptosis)” value is reported as “emergence”; the “Protein expression levels of p53 and downstream proteins (p21, BAX)” value was “increased”; the “Protein expression levels of suppressors of p53 (BCL11A and TRIM24)” value is listed as “reduced”. For the same compound, the “Expressions of RUNX1 target genes (IL3, CSF2, and CSF2RB), mRNA” value in test [3] was “effectively inhibited”. Besides, in test [4], the “IC50 compared with that of imatinib” value was “lower IC50 values”. In addition, the “Growth inhibition of AML cells” value in [5] is listed as “highly effective”. For the same compound, the IC50 in test [6] came to 1.42 µM. Besides, the “Gene expression pattern vs cells with all RUNX family members knockdown” value in [7] was “significantly correlated”.

Turning to `Cc1ccc(NC(=O)c2ccc(CN3CCN(C)CC3)cc2)cc1Nc1nccc(-c2cccnc2)n1` [imatinib, reference compound], in test [8], the “H&E staining of bone marrow” value is “little change”; the “Invasion of liver by transplanted PhALL cells (hCD45 staining)” value was “not inhibited”; the “Invasion of spleen by transplanted PhALL cells (hCD45 staining), compared with liver” value is recorded as “same results”; the “hCD45 staining of bone marrow (human leukemia cells)” value is listed as “filled with leukemia cells”.

Take `CC1=C(/C=C/C(C)=C/C=C/C(C)=C/C(=O)O)C(C)(C)CCC1` [ATRA, all-trans-retinoic acid]: the IC50 in test [9] (48 h) turned out to be 75.7 µM; in test [9] (72 h), 60.1 µM; in test [10] (48 h), 12.4 µM; in test [10] (72 h), 10.3 µM.

As for `Nc1ccn([C@@H]2O[C@H](CO)[C@@H](O)[C@@H]2O)c(=O)n1` [cytarabine, reference compound], in test [11], the “H&E staining of bone marrow” value is listed as “little change” and the “hCD45 staining of bone marrow (human leukemia cells)” value is on record as “filled with leukemia cells”.

Regarding `O=C(O)CCCc1ccc(N(CCCl)CCCl)cc1` [Chlorambucil], the IC50 in [12] stood at 38.1 µM; in test [14] it was 37.6 µM; in [15] it was 18.2 µM. Besides, the “IC50 (μM)” value in [13] is listed as “Not measurable”.

For the compound `O=C1C2CCN(CC2)C1(CO)CO` [PRIMA-1, 2,2-bis(hydroxymethyl)-1-azabicyclo[2.2.2]octan-3-one], the IC50 in test [16] was 5.5 µM; in test [17], greater than 100 µM; in [18], 7.03 µM; in test [19], 5.74 µM; in [20] it was 6 µM.

In the case of `COc1cc2ncnc(Nc3ccc(F)c(Cl)c3)c2cc1OCCCN1CCOCC1` [gefitinib, reference compound], the “Effect on the lung cancer model” value in test [21] (A549 xenograft) is reported as “did not show effect”. Moreover, in test [21] (day 14 after transplantation), the “H&E staining of lung tissue (lung cancer cells in pulmonary alveoli)” value is on record as “densely filled with lung cancer cells”. Besides, the “Brightness of luciferase (IVIS), lung” value is listed as “increased” in test [21] (day 14 after transplantation, after 2 administrations) and “increased” in [21] (day 21 after transplantation, after total 4 administrations).
